From US20020197294A1, “PYRONE COMPOUNDS AND THERE USE” (SUMITOMO CHEMICAL COMPANY, LIMITED, priority 2001, published 2002)

How the values were obtained:
Format in all cases: in vivo
[1] = system: German cockroaches (Blattella germanica); test: German cockroach filter paper test (Test Example 1); conditions: 144 h, 0.7 ml of 500 ppm aqueous dilution on filter paper, male German cockroaches, after six days
Description: (§1) Filter paper of 5.5 cm in diameter was laid in the bottom of a polyethylene cup (diameter: 5.5 cm). After 0.7 ml of a 500 ppm aqueous dilution obtained by diluting the formulation of the test compound prepared according to the formulation example 1 was dropped on the filter paper, 30 mg of sucrose was scattered. Two male German cockroaches (Blattella germanica) were left in the polyethylene cup with a cover. After six days, the mortality of the German cockroaches was examined.

[2] = system: houseflies (Musca domestics); test: Housefly filter paper test (Test Example 2); conditions: 0.7 ml of 500 ppm aqueous dilution on filter paper, female houseflies, after one day
Description: as §1, with “Ten female houseflies (Musca domestics)” for “Two male German cockroaches (Blattella germanica)”, “the” for “the polyethylene”, “one day,” for “six days,”, “houseflies” for “German cockroaches”

[3] = system: houseflies (Musca domestics); test: Housefly topical application test (Test Example 3); conditions: 0.5 μl of 30 g/l acetone solution at back thoracic region (about 15 μg/one housefly), female houseflies, after 24 hours, three replicate
Description: A solution (30 g/l) for each of the present compound (A) and the reference compound was prepared by diluting with acetone.
The acetone solution (0.5 μl) was applied to 10 female houseflies (Musca domestics) at the back thoracic region (active ingredient: about 15 μg/one housefly) by a microsyringe and the houseflies were left with water and feed in a plastic cup. After 24 hours, the mortality (%) was examined (three replicate).

## Cc1cc(O)c(C(=O)CC(C(F)(F)F)C(F)(F)F)c(=O)o1 [the present compound (C), 4-hydroxy-6-methyl-3-(3-trifluoromethyl-4,4,4-trifluorobutyryl) -2-pyrone]
[1]
  mortality at 500 ppm: 100%
[2]
  mortality of the houseflies: 100%

## Cc1cc(O)c(C(=O)CCC(F)(F)F)c(=O)o1 [the present compound (A), 4-hydroxy-6-methyl-3-(4,4,4-trifluorobutyryl)-2-pyrone]
[1]
  mortality at 500 ppm: 100%
[2]
  mortality of the houseflies: 100%
[3]
  Mortality (%): 100%

## CCCC(=O)c1c(O)cc(C)oc1=O [The Reference compound, reference compound]
[3]
  Mortality (%): 3.3%

## Cc1cc(O)c(C(=O)CC(C)C(F)(F)F)c(=O)o1 (centres unmarked) [the present compound (B), 4-hydroxy-6-methyl-3-(3-trifluoromethylbutyryl)-2-pyrone]
[1]
  mortality at 500 ppm: 100%
[2]
  mortality of the houseflies: 100%
